Experimental data taken from patent US20260193255A1, “7-AZAINDOLE COMPOUNDS, PREPARATION METHOD THEREFOR, AND USE THEREOF” (Fudan University, priority 2022, published 2026).

Tests used:
[1] = test system: C26 tumor cancer cachexia model, BALB/c mice; experiment: Cancer cachexia animal model, compound 2 (C26 tumor, BALB/c mice, 5 mg/kg ig); assay type: in vivo, mouse; conditions: 5 mg/kg ig daily
Experimental: C26 cells were inoculated in T75 flasks. The culture system was 1640 medium containing 10% FBS with 1% penicillin-streptomycin. The flasks were placed in a 5% CO2, 37° C. environment for expansion culture. The cells were collected by centrifugation at 1000 rpm for 3 mins, and the culture medium was washed away with ice-cold PBS buffer, and a cell suspension of 10 million/ml was prepared. The cell suspension was inoculated into the left and right armpits of BALB/c mice at a concentration of 1 million for tumor development. When the tumor volume increased to 1000 mm^3, the tumor was removed and homogenized with 3 ml of ice saline/g to obtain a tumor tissue suspension. The mice to be inoculated were divided into groups according to their weight, and the cell suspension was inoculated into the left armpit of Balb/c mice at an inoculation volume of 100 μl per mouse. Treatment was started from the day after inoculation. Compound 2 was dissolved in 3% DMSO, 2% Solutol and 95% saline in sequence to form a uniform solution with the required concentration. The solution was prepared and used daily. The dose was 5 mg/kg and the compound was administered by the intragastric (ig) route. The body weight, temperature, tumor size and food intake of mice were monitored daily. […] When the tumor volume of mice in the model group reached 2.0× 103 mm^3 or their body weight decreased by 10%, they were considered to have entered the cachexia stage. The muscle grasp force of the mice's forelimbs was tested at these two stages. […] At the end of the experiment, the mice were killed by cervical dislocation and the gastrocnemius, tibialis anterior, right hind limb and tumor samples were obtained, and the sample weights were measured.
(§1) The method for detecting muscle grasp force was as follows: The muscle grasp force of mice was tested on the 5th day (pre-cachexia stage) and the 22nd day (cachexia stage) of the experiment. The mouse was steadily placed on the YLS-13A Mouse and Rat Grasp Force Tester by using the right hand, so that its forelimbs could tightly grasp the gripping disk, and the gripping disk was stabilized by using the left hand moving forward. When the left hand slowly released the gripping disk, the right hand immediately and slowly pulled the mouse's tail backwards until its forelimbs were separated from the gripping disk. The test was repeated 8 times for each mouse, and the mean value of the 8 measurements was used as the skeletal muscle strength index of each mouse.

mouse myoblasts (C2C12) = experiment: Atrophy of mouse myoblasts (C2C12) induced by C26 cell supernatant, myotube diameter by HE staining; assay type: cell-based; conditions: Mus musculus, 48 hours treatment, C26 supernatant-induced C2C12 myotubes, read-out: Myotube atrophy reversal rate
Experimental: C2C12 cells were inoculated in 24-well plates. The culture system was high-glucose DMEM medium containing 10% FBS with 1% penicillin-streptomycin. The plates were placed in a 5% CO2, 37° C. environment. When the cell growth density reached 50%-60%, the culture system was replaced with high-glucose DMEM culture medium containing 2% HS with 1% penicillin-streptomycin. Fresh 2% HS differentiation medium was replaced every 48 hours, and the cells were differentiated into mature cells on the 5th or 6th day. Additionally, C26 cells were inoculated in T75 flasks. The culture system was high-glucose DMEM medium containing 10% FBS with 1% penicillin-streptomycin. The flasks were placed in a 5% CO2, 37° C. environment. When subculturing, the cells were subcultured at 6 million cells/flask. After culturing in 20 ml of culture medium for 48 hours, the supernatant was collected and centrifuged at 1000 rpm for 3 mins. The supernatant was collected and centrifuged at 4000 rpm for 10 mins to obtain the C26 supernatant. The C26 supernatant and 2% HS differentiation solution were mixed at a ratio of 1:1 (volume ratio) as the muscle atrophy induction solution. Except for the control group in which 2% HS differentiation solution was added, for the other groups, an equivalent amount of muscular atrophy induction solution was added. One group was used as the model group, and the other groups were used as the treatment and experimental groups.
The diameter of myotubes after differentiation of mouse myoblasts (C2C12) was evaluated by using the diameter measurement method. The method for measuring the diameter of myotubes was as follows: after 48 hours of treatment, the myotubes were fixed with a fixative (anhydrous ethanol: formaldehyde: glacial acetic acid (volume ratio)=20:2:1) for more than 1 h and stained. The staining method used in the experiment is hematoxylin-eosin staining, referred to as HE staining for short. Hematoxylin stain is alkaline and positively charged, and it can easily bind to the negatively charged and acidic deoxyribonucleic acid (DNA) in the cell nucleus through ionic bonds to stain it blue; eosin is an acidic dye that dissociates into negatively charged anions in water, and it can easily bind to the positively charged amino groups of proteins in the cytoplasm to stain it red. The stained cells were placed under a high-power microscope to take pictures (magnification: 200 times), and the diameter of myotube cells was statistically analyzed using image J software. The muscle atrophy reversal rate was calculated according to the following formula: Muscle atrophy reversal rate=(average value of myotubes in the treatment group-average value of myotubes in the model group)/(average value of myotubes in the control group-average value of myotubes in the model group)×100%

ActRIIB = ActRIIB (Homo sapiens, UniProt Q13705); experiment: ActRIIB inhibitory activity, ADP-Glo assay kit; assay type: biochemical; conditions: ATP 25 μM, substrate 0.1 mg/mL, ActRIIB 20.0 ng/μL
Experimental: The ATP and substrate concentrations recommended by the ADP-Glo™ assay kit were used, which were 25 μM and 0.1 mg/mL, respectively, and a series of isocratic final ActRIIB concentrations were set up, which were 0, 0.47, 0.94, 1.88, 3.75, 7.5, 15, 30, and 60 ng/μL, respectively. According to the […] values obtained in the experiment, an ActRIIB concentration titration curve was drawn. The ActRIIB concentrations corresponding to the ratio of the signal value to the background value (i.e., signal-to-background ratio, SBR) in the range of 5-10 times are suitable for screening compounds for inhibition of ActRIIB activity. From the ActRIIB concentration titration curve, the final ActRIIB concentrations corresponding to SB5 and SB10 were calculated to be 14.9 and 23.7 ng/μL, respectively. Finally, a final concentration of 20.0 ng/μL was selected as the experimental concentration for screening compounds for their inhibitory activity against ActRIIB. The inhibitory efficiency of 7-azaindole compounds on ActRIIB was detected at concentrations of 0.1, 1, 10, and 100 nM, respectively.

[2] = test system: C26 tumor cancer cachexia model, BALB/c mice; experiment: Cancer cachexia animal model, compounds 3 and 10 (C26 tumor, BALB/c mice, 10 mg/kg ip); assay type: in vivo, mouse; conditions: 10 mg/kg ip daily; for Cross-sectional area of gastrocnemius fibers: H&E sections; for Muscle grasp force: p<0.05
Experimental: C26 cells were inoculated in T75 flasks. The culture system was 1640 medium containing 10% FBS with 1% penicillin-streptomycin. The flasks were placed in a 5% CO2, 37° C. environment for expansion culture. The cells were collected by centrifugation at 1000 rpm for 3 mins, and the culture medium was washed away with ice-cold PBS buffer, and a cell suspension of 10 million/ml was prepared. The cell suspension was inoculated into the left and right armpits of BALB/c mice at a concentration of 1 million for tumor development. When the tumor volume increased to 1000 mm^3, the tumor was removed and homogenized with 3 ml of ice saline/g to obtain a tumor tissue suspension. The mice to be inoculated were divided into groups according to their weight, and the cell suspension was inoculated into the left armpit of BALB/c mice at an inoculation volume of 100 μl per mouse. Treatment was started from the day after inoculation. Compounds 3 and 10 were dissolved in 3% DMSO, 2% Solutol and 95% saline in sequence to form a uniform solution with the required concentration. The solution was prepared and used daily. The dose was 10 mg/kg and the compound was administered by intraperitoneal injection (ip). The body weight, temperature, tumor size and food intake of mice were monitored daily. […] In the middle stage of the experiment, the weight of the mice in the model group began to decrease, which was considered to have entered the mid-cachexia stage. When the tumor volume of the mice in the model group reached 2.0× 103 mm^3 or their body weight decreased by 10%, they were considered to have entered the late-cachexia stage. The muscle grasp force of the mice's forelimbs was tested at these three stages. At the end of the experiment, the mice were killed by cervical dislocation and the gastrocnemius, tibialis anterior, right hind limb and tumor samples were obtained, and the sample weights were measured. Gastrocnemius tissue of appropriate size was obtained, and H&E stained tissue sections were prepared through processes such as fixation, embedding, slicing, staining. At least 10 fields of view were randomly selected for slices of different groups for photographing, and the cross-sectional areas of all muscle fibers in the photographs were measured and statistically analyzed.
as §1, with “3rd” for “5th”, “(pre-cachexia stage), the 11th day (mid-cachexia” for “(pre-cachexia”, “16th” for “22nd”, “(late-cachexia” for “(cachexia”

Sequence of ActRIIB (Q13705 19-512): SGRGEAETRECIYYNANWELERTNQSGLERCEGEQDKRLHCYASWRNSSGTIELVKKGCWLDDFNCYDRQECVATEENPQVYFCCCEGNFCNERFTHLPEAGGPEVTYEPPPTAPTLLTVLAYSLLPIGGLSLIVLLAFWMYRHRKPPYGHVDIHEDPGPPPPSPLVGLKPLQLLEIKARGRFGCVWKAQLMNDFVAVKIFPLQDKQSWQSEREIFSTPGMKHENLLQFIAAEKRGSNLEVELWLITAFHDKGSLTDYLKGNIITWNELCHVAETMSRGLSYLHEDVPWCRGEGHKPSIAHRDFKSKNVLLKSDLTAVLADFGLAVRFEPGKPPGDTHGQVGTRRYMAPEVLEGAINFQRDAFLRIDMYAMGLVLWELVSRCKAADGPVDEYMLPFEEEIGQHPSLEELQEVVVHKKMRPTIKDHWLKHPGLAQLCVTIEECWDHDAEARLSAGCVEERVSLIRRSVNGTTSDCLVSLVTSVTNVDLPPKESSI

| SMILES | Average accumulative food intake vs C26 tumor model group [1] | Right hind limb weight (skeletal muscle atrophy) [1] | Tumor volume vs C26 tumor model group [1] | Muscle grasp force ([1]; cachexia stage, p=0.06) | Gastrocnemius mass (gastrocnemius atrophy) ([1]; p<0.05) | Tibialis anterior mass (tibialis anterior atrophy) ([1]; p<0.05) | Weight loss (tumor-bearing and tumor-free body weight) vs C26 tumor model group ([1]; p<0.05 at end of experiment) | inhibition at 1.25 µM (mouse myoblasts (C2C12)) | inhibition at 2.5 µM (mouse myoblasts (C2C12)) | inhibition at 5 µM (mouse myoblasts (C2C12)) | IC50 (ActRIIB) | Average accumulative food intake vs C26 tumor model group [2] | Gastrocnemius atrophy (muscle mass) [2] | Right hind limb weight (skeletal muscle atrophy) [2] | Tibialis anterior atrophy (muscle mass) [2] | Tumor volume vs C26 tumor model group [2] | Weight loss (tumor-bearing and tumor-free body weight) vs C26 tumor model group [2] | Cross-sectional area of gastrocnemius fibers [2] | Muscle grasp force [2] |
| --- | --- | --- | --- | --- | --- | --- | --- | --- | --- | --- | --- | --- | --- | --- | --- | --- | --- | --- | --- |
| CN1CCN(c2ccc(-c3cnc4[nH]cc(-c5cc[nH]n5)c4c3)cc2)CC1 [Compound 2, 3-(1H-pyrazol-3-yl)-5-[4-(4-methylpiperazin-1-yl)phenyl]-1H-pyrrolo[2,3-b]pyridine] | slightly higher than that in the C26 tumor model group | improve skeletal muscle atrophy in cachectic mice to a certain extent | slightly reduced compared with the C26 tumor model group, but there was no significant difference | significantly enhance the muscle grasp force of cachexia mice | significantly alleviate the gastrocnemius atrophy in cachectic mice | significantly alleviate the tibialis anterior atrophy in cachectic mice | significantly alleviate the weight loss of mice | 69.2% | 97.6% | 131% | 1.8 nM |  |  |  |  |  |  |  |  |
| c1cc(-c2c[nH]c3ncc(-c4ccc(OCCN5CCOCC5)cc4)cc23)n[nH]1 [Compound 10, 3-(1H-pyrazol-3-yl)-5-(4-[[2-(1,4-oxazacyclohexan-4-yl)ethyl]oxy]phenyl)-1H-pyrrolo[2,3-b]pyridine] |  |  |  |  |  |  |  | 42.4% | 58.9% | 100% | 4 nM | slightly higher than that in the C26 tumor model group | cannot significantly alleviate the gastrocnemius atrophy in cachectic mice | improve skeletal muscle atrophy in cachectic mice to a certain extent | cannot significantly alleviate the tibialis anterior atrophy in cachectic mice | slightly reduced compared with the C26 tumor model group, but there was no significant difference | significantly alleviate the weight loss of mice | significantly alleviate the reduction in the cross-sectional area of the gastrocnemius in cachectic mice | significantly enhance the muscle grasp force of cachexia mice |
| CN1CCN(c2ccc(-c3cnc4[nH]cc(-c5ccc6[nH]ccc6c5)c4c3)cc2)CC1 [Compound 3, 3-(1H-indol-5-yl)-5-[4-(4-methylpiperazin-1-yl)phenyl]-1H-pyrrolo[2,3-b]pyridine] |  |  |  |  |  |  |  |  | 90.9% |  | 1.1 nM | slightly higher than that in the C26 tumor model group | cannot significantly alleviate the gastrocnemius atrophy in cachectic mice | improve skeletal muscle atrophy in cachectic mice to a certain extent | cannot significantly alleviate the tibialis anterior atrophy in cachectic mice | slightly reduced compared with the C26 tumor model group, but there was no significant difference | alleviate the weight loss of mice to some extent | significantly alleviate the reduction in the cross-sectional area of the gastrocnemius in cachectic mice | significantly enhance the muscle grasp force of cachexia mice |
